Source: PubChem BioAssay (NCI)
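Briefly, cells in 96-well plates were exposed to five compound concentrations for 48 h, and endpoints were estimated by linear interpolation. Abbreviation: GI50, concentration required for 50% inhibition of growth. The concentration for full growth arrest is given as TGI.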

How the values were obtained:
Assay in all cases: NCI tumour cell line growth inhibition, 48 h; in the data active = GI50 below about 0.43 µM; inactive = the rest
NCI-H522 lung = tested on: NCI-H522 lung
COLO 205 colon = tested on: COLO 205 colon
MOLT-4 leukemia = tested on: MOLT-4 leukemia
SR leukemia = tested on: SR leukemia
HL-60(TB) leukemia = tested on: HL-60(TB) leukemia
MCF7 breast = tested on: MCF7 breast
HT29 colon = tested on: HT29 colon
HOP-62 NSCLC = tested on: HOP-62 NSCLC
HOP-92 NSCLC = tested on: HOP-92 NSCLC
OVCAR-3 ovarian = tested on: OVCAR-3 ovarian
TK-10 renal = tested on: TK-10 renal
M14 melanoma = tested on: M14 melanoma
HCT-116 colon = tested on: HCT-116 colon
CCRF-CEM leukemia = tested on: CCRF-CEM leukemia
CAKI-1 renal = tested on: CAKI-1 renal
SNB-19 CNS = tested on: SNB-19 CNS
MDA-MB-435 = tested on: MDA-MB-435
NCI-H23 lung = tested on: NCI-H23 lung
RPMI-8226 leukemia = tested on: RPMI-8226 leukemia
SNB-75 CNS = tested on: SNB-75 CNS
SF-539 CNS = tested on: SF-539 CNS
DU-145 prostate = tested on: DU-145 prostate
HCT-15 colon = tested on: HCT-15 colon
A549 NSCLC = tested on: A549 NSCLC
LOX IMVI melanoma = tested on: LOX IMVI melanoma
SF-268 CNS = tested on: SF-268 CNS
NCI/ADR-RES ovarian = tested on: NCI/ADR-RES ovarian
SK-MEL-5 melanoma = tested on: SK-MEL-5 melanoma
SK-MEL-2 melanoma = tested on: SK-MEL-2 melanoma
OVCAR-4 ovarian = tested on: OVCAR-4 ovarian
KM12 colon = tested on: KM12 colon
A498 renal = tested on: A498 renal
MDA-MB-231 breast = tested on: MDA-MB-231 breast
UO-31 renal = tested on: UO-31 renal
UACC-257 melanoma = tested on: UACC-257 melanoma
NCI-H226 lung = tested on: NCI-H226 lung
OVCAR-5 ovarian = tested on: OVCAR-5 ovarian
IGROV1 ovarian = tested on: IGROV1 ovarian
U251 CNS = tested on: U251 CNS
786-0 renal = tested on: 786-0 renal
NCI-H460 lung = tested on: NCI-H460 lung
HS 578T breast = tested on: HS 578T breast
T-47D breast = tested on: T-47D breast
HCC-2998 colon = tested on: HCC-2998 colon
K-562 leukemia = tested on: K-562 leukemia
BT-549 breast = tested on: BT-549 breast
ACHN renal = tested on: ACHN renal
SW-620 colon = tested on: SW-620 colon
SF-295 CNS = tested on: SF-295 CNS
SK-OV-3 ovarian = tested on: SK-OV-3 ovarian
EKVX NSCLC = tested on: EKVX NSCLC
MALME-3M melanoma = tested on: MALME-3M melanoma
SN12C renal = tested on: SN12C renal
OVCAR-8 ovarian = tested on: OVCAR-8 ovarian
SK-MEL-28 melanoma = tested on: SK-MEL-28 melanoma
UACC-62 melanoma = tested on: UACC-62 melanoma
PC-3 prostate = tested on: PC-3 prostate
RXF 393 renal = tested on: RXF 393 renal

Nc1nc(-c2ccc3c(c2)/C(=C\c2cc(Br)c(O)c(Br)c2)C(=O)N3)cs1
17.4 µM: TGI (MALME-3M melanoma)
19.4 µM: TGI (NCI-H522 lung)
20.4 µM: TGI (OVCAR-3 ovarian)
> 17.6 µM: TGI (SK-MEL-2 melanoma)
12.1 µM: TGI (SK-MEL-5 melanoma)
12 µM: TGI (MDA-MB-435)
> 23.8 µM: TGI (BT-549 breast)
> 22.6 µM: TGI (HL-60(TB) leukemia)
16.5 µM: TGI (A498 renal)
23.7 µM: TGI (UACC-62 melanoma)
> 25 µM: TGI (COLO 205 colon) | TGI (MOLT-4 leukemia) | TGI (SR leukemia) | TGI (MCF7 breast) | TGI (HT29 colon) | TGI (HOP-62 NSCLC) | TGI (HOP-92 NSCLC) | TGI (TK-10 renal) | TGI (HCT-116 colon) | TGI (CCRF-CEM leukemia) | TGI (CAKI-1 renal) | TGI (SNB-19 CNS) | TGI (NCI-H23 lung) | TGI (RPMI-8226 leukemia) | TGI (SNB-75 CNS) | TGI (SF-539 CNS) | TGI (DU-145 prostate) | TGI (HCT-15 colon) | TGI (A549 NSCLC) | TGI (LOX IMVI melanoma) | TGI (SF-268 CNS) | TGI (NCI/ADR-RES ovarian) | TGI (OVCAR-4 ovarian) | TGI (KM12 colon) | TGI (MDA-MB-231 breast) | TGI (UO-31 renal) | TGI (NCI-H226 lung) | TGI (OVCAR-5 ovarian) | TGI (IGROV1 ovarian) | TGI (U251 CNS) | TGI (786-0 renal) | TGI (NCI-H460 lung) | TGI (HS 578T breast) | TGI (T-47D breast) | TGI (HCC-2998 colon) | TGI (K-562 leukemia) | TGI (ACHN renal) | TGI (SW-620 colon) | TGI (SF-295 CNS) | TGI (SK-OV-3 ovarian) | TGI (EKVX NSCLC) | TGI (SN12C renal) | TGI (OVCAR-8 ovarian) | TGI (SK-MEL-28 melanoma) | TGI (PC-3 prostate) | TGI (RXF 393 renal)
11.8 µM: TGI (M14 melanoma)
14.4 µM: TGI (UACC-257 melanoma)
inactive: GI50 (NCI-H522 lung) 8.12 µM | GI50 (COLO 205 colon) 15.1 µM | GI50 (MOLT-4 leukemia) 16.2 µM | GI50 (SR leukemia) 11.3 µM | GI50 (HL-60(TB) leukemia) 8.91 µM | GI50 (MCF7 breast) 12.8 µM | GI50 (HT29 colon) 11.2 µM | GI50 (HOP-62 NSCLC) > 17 µM | GI50 (HOP-92 NSCLC) 9.19 µM | GI50 (OVCAR-3 ovarian) 8.14 µM | GI50 (TK-10 renal) > 25 µM | GI50 (M14 melanoma) 5.02 µM | GI50 (HCT-116 colon) 12.9 µM | GI50 (CCRF-CEM leukemia) 9.36 µM | GI50 (CAKI-1 renal) > 25 µM | GI50 (SNB-19 CNS) > 25 µM | GI50 (MDA-MB-435) 4.68 µM | GI50 (NCI-H23 lung) 14.3 µM | GI50 (RPMI-8226 leukemia) 14.9 µM | GI50 (SNB-75 CNS) 11.8 µM | GI50 (SF-539 CNS) 11.9 µM | GI50 (DU-145 prostate) 18.6 µM | GI50 (HCT-15 colon) > 20.2 µM | GI50 (A549 NSCLC) > 25 µM | GI50 (LOX IMVI melanoma) 7.84 µM | GI50 (SF-268 CNS) 16.3 µM | GI50 (NCI/ADR-RES ovarian) > 23.4 µM | GI50 (SK-MEL-5 melanoma) 5.4 µM | GI50 (SK-MEL-2 melanoma) 6.96 µM | GI50 (OVCAR-4 ovarian) > 25 µM | GI50 (KM12 colon) 10.4 µM | GI50 (A498 renal) 5.57 µM | GI50 (MDA-MB-231 breast) 17.3 µM | GI50 (UO-31 renal) 19.1 µM | GI50 (UACC-257 melanoma) 5.57 µM | GI50 (NCI-H226 lung) > 25 µM | GI50 (OVCAR-5 ovarian) > 25 µM | GI50 (IGROV1 ovarian) > 25 µM | GI50 (U251 CNS) 12.8 µM | GI50 (786-0 renal) 14.1 µM | GI50 (NCI-H460 lung) 16.4 µM | GI50 (HS 578T breast) 9.98 µM | GI50 (T-47D breast) 15.1 µM | GI50 (HCC-2998 colon) 17.8 µM | GI50 (K-562 leukemia) 10.6 µM | GI50 (BT-549 breast) 11.4 µM | GI50 (ACHN renal) > 23.9 µM | GI50 (SW-620 colon) 10.6 µM | GI50 (SF-295 CNS) 10.1 µM | GI50 (SK-OV-3 ovarian) 17.9 µM | GI50 (EKVX NSCLC) > 25 µM | GI50 (MALME-3M melanoma) 5.95 µM | GI50 (SN12C renal) > 25 µM | GI50 (OVCAR-8 ovarian) > 25 µM | GI50 (SK-MEL-28 melanoma) 7.99 µM | GI50 (UACC-62 melanoma) 6.89 µM | GI50 (PC-3 prostate) 13.6 µM | GI50 (RXF 393 renal) 12.5 µM
